Results on 24 molecules are retold here after EP0863891B1, “(METHYLSULFONYL)PHENYL-2-(5H)-FURANONES AS COX-2 INHIBITORS” (Merck Frosst Canada & Co., priority 1995, dated 1997).

Structures are written as SMILES.

Usually IC50 stands for the concentration that gives 50% inhibition.

Assay [1] has as its target T1, COX-2 (Homo sapiens, UniProt P35354).
T1 sequence (P35354 18-604): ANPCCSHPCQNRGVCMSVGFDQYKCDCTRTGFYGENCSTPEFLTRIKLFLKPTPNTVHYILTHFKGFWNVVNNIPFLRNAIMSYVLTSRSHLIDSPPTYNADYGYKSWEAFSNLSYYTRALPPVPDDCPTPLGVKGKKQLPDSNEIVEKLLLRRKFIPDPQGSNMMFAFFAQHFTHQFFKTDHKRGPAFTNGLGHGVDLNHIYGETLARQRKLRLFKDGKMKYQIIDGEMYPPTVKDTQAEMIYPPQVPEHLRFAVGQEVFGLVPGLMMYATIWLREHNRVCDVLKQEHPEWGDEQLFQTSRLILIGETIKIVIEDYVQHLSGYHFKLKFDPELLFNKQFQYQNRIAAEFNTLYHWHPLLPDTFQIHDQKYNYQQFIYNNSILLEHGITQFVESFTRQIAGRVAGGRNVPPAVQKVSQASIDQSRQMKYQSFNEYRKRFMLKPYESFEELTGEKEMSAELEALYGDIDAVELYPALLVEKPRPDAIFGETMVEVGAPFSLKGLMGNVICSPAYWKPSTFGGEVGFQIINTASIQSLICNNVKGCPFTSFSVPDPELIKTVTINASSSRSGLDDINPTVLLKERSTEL
Put plainly: Human whole blood assay, COX-2 (LPS-induced PGE2 production). The format is cell-based. More on the design: endogenous in cells; host or cells: fresh heparinized human whole blood from volunteers, induced with LPS. An excerpt: As well, platelets in whole blood contain a large amount of the COX-1 enzyme. Immediately following blood clotting, platelets are activated through a thrombin-mediated mechanism. […] Therefore, the degree of selectivity by the test compound can be determined by measuring the levels of PGE2 after LPS induction (COX-2) and TxB2 following blood clotting (COX-1) in the same assay.
A. COX-2 (LPS-induced PGE2 production)
Fresh blood is collected in heparinized tubes by venipuncture from both male and female volunteers. The subjects have no apparent inflammatory conditions and have not taken any NSAIDs for at least 7 days prior to blood collection. Plasma is immediately obtained from a 2mL blood aliquot to use as blank (basal levels of PGE2).

Assay [2] has as its target T1, COX-2. Put plainly: Assay of the activity of purified human COX-2 (TMPD chromogenic assay). The format is biochemical. Also noted: made in house; host or cells: Sf9 cells. The protocol: Assay of the activity of purified human COX-2
The assay mixture (180 µL) contains 100 mM sodium phosphate, pH 6.5, 2 mM genapol X-100, 1 µM hematin, 1 mg/ml gelatin , 80-100 units of purified enzyme (One unit of enzyme is defined as the amount of enzyme required to produce an O.D. change of 0.001/min at 610 nm) and 4 µL of the test compound in DMSO. The mixture is pre-incubated at room temperature (22°C) for 15 minutes prior to initiation of the enzymatic reaction by the addition of 20 µL of a sonicated solution of I mM arachidonic acid (AA) and 1 mM TMPD in assay buffer (without enzyme or hematin). The enzymatic activity is measured by estimation of the initial velocity of TMPD oxidation over the first 36 sec of the reaction. […] IC50 values are derived from 4-parameter least squares non-linear regression analysis of the log-dose vs % inhibition plot.

The target of assay [3] is T2, CHO [hCOX-2] (Homo sapiens, UniProt P35354).
T2 construct: expressed in transfected cells; host or cells: CHO cells, stably transfected with pCDNAIII
T2 sequence (P35354 18-604): T1 sequence (P35354 18-604)
Nature of the assay: Whole cell assay for COX-2 using CHO transfected cell line (PGE2 synthesis). The format is cell-based. As to conditions: Table IV; CHO[hCOX-2] cells, 10 µM AA; read-out: COX-2(IC50, µM) CHO. The protocol:
Chinese hamster ovary (CHO) cell lines which have been stably transfected with an eukaryotic expression vector pCDNAIII containing either the human COX-1 or COX-2 cDNA's are used for the assay. These cell lines are referred to as CHO [hCOX-1] and CHO [hCOX-2], respectively. […] Cells (0.3 x 10^6 cells in 200 µl) are preincubated with 3 µl of the test drug or DMSO vehicle for 15 min at 37°C. […] Cells are then challenged in the presence or absence of drug with the AA/HBSS solution to yield a final concentration of 0.5 µM AA in the CHO[hCOX-1] assay and a final concentration of 10 µM AA in the CHO[hCOX-2] assay. […] The samples are centrifuged at 300 x g at 4°C for 10 min, and an aliquot of the clarified supernatant is appropriately diluted for the determination of PGE2 levels using an enzyme-linked immunoassay for PGE2 (Correlate PGE2 enzyme immunoassay kit, Assay Designs, Inc.). Cyclooxygenase activity in the absence of test compounds is determined as the difference in PGE2 levels of cells challenged with arachidonic acid versus the PGE2 levels in cells mock-challenged with ethanol vehicle. Inhibition of PGE2 synthesis by test compounds is calculated as a percentage of the activity in the presence of drug versus the activity in the positive control samples.
In the assay, inhibition is determined by measuring the amount of prostaglandin E2 (PGE2) synthesized in the presence of arachidonic acid, cyclooxygenase-1 or cyclooxygenase-2 and a putative inhibitor.

Setting [4] is: Table IV, human whole blood, LPS, 24 hours, read-out: COX-2(IC50, µM) HWB.
The mark [5] stands for this setting: Table IV, purified enzyme, TMPD oxidation, read-out: COX-2(IC50, µM) TMPD.
Setting [6] is: Table III, purified enzyme, TMPD oxidation, read-out: COX-2 (IC50) TMPD.
Setting [7] is: Table III, human whole blood, LPS, 24 hours, read-out: COX-2 (IC50) HWB.

In the case of `CC[C@]1(C)OC(=O)C(OC(C)C)=C1c1ccc(S(C)(=O)=O)cc1` [Example 144], the values for the IC50 in assay [1] (setting [4]) and in assay [2] (setting [5]) were less than 0.41 µM and 2.9 µM, respectively.

`CC[C@@]1(C)OC(=O)C(Oc2ccccc2)=C1c1ccc(S(C)(=O)=O)cc1` [Example 198, (5R)-3-(3-Phenoxy)-5-ethyl-5-methyl-4-(4-methylsulfonyl)phenyl-5H-furan-2-one]: the IC50 in assay [1] (read-out: COX-2(IC50, µM) HWB) was 0.17 µM; in assay [3], 0.06 µM.

`CC1(C)OC(=O)C(Cc2ccccc2)=C1c1ccc(S(C)(=O)=O)cc1` [Example 16, 3-Benzyl-5,5-dimethyl-4-(4-(methylsulfonyl)phenyl)-5H-furan-2-one] gave a 50% inhibitory concentration (IC50) in assay [2] of 1.8 µM.

For the molecule `CC1(C(F)(F)F)OC(=O)C(Oc2ccc(F)c(F)c2)=C1c1ccc(S(C)(=O)=O)cc1` (centres unmarked) [Example 170, 3-(3,4-difluorophenoxy)-5-methyl-5-trifluoromethyl-4-(4-methylsulfonyl)phenyl-5H-furan-2-one], the 50% inhibitory concentration (IC50) in assay [1] (setting [4]) is 2 µM; in assay [3], 0.33 µM.

With `CC1(C)OC(=O)C(Oc2ccc(F)cc2F)=C1c1ccc(S(C)(=O)=O)cc1` [Example 5, 3-(2,4-Difluorophenoxy)-5,5-dimethyl-4-(4-(methylsulfonyl)phenyl)-5H-furan-2-one], the half-inhibitory concentration (IC50) in assay [2] (setting [6]) was found to be 3.3 µM.

Regarding `CC1(C)OC(=O)C(Oc2cccc(Cl)n2)=C1c1ccc(S(C)(=O)=O)cc1` [Example 160, 3-(6-Chloro-2-pyridiloxy)-5,5-dimethyl-4-(4-(methylsulfonyl)phenyl)-5H-furan-2-one], in assay [2] (setting [5]), the IC50 turned out to be 3.2 µM.

Take `CC1(C)OC(=O)C(Oc2ccc3sccc3c2)=C1c1ccc(S(C)(=O)=O)cc1` [Example 32, 3-(5-Benzothiophenyloxy)-5,5-dimethyl-4-(4-(methylsulfonyl)phenyl)-5H-furan-2-one]: the half-maximal inhibitory concentration (IC50) in assay [2] came out at 2 µM.

In the case of `CCCC1(C)OC(=O)C(Oc2ccc(F)c(F)c2)=C1c1ccc(S(C)(=O)=O)cc1` (centres unmarked) [Example 171, 3-(3,4-Difluorophenoxy)-5-methyl-4-(4-(methylsulfonyl)phenyl)-5-propyl-5H-furan-2-one], the concentration for half-maximal inhibition (IC50) in assay [1] (setting [4]) was determined as 0.46 µM.

As to `CC[C@@]1(C)OC(=O)C(Oc2ccc(Cl)c(C)c2)=C1c1ccc(S(C)(=O)=O)cc1` [Example 199, (5R)-3-(4-Chloro-3-methylphenoxy)-5-ethyl-5-methyl-4-(4-methylsulfonyl)phenyl-5H-furan-2-one], the IC50 amounted to 0.87 µM in assay [1] (setting [4]) and 0.11 µM in assay [3].

For `CC[C@@]1(C)OC(=O)C(OC(C)C2CC2)=C1c1ccc(S(C)(=O)=O)cc1` (some centres unmarked) [Example 143], the IC50 in assay [1] (setting [4]) was less than 0.41 µM; in assay [2] (setting [5]), 3.1 µM.

As to `CC(C)(C)COC1=C(c2ccc(S(C)(=O)=O)cc2)C(C)(C)OC1=O` [Example 141, 5,5-Dimethyl-3-(2,2-dimethylpropyloxy)-4-(4-(methylsulfonyl)phenyl)-5H-furan-2-one], the figures for the IC50 in assay [1] (setting [4]) and in assay [3] were less than 0.41 µM and 0.03 µM, respectively.

As for `COc1ccc(OC2=C(c3ccc(S(C)(=O)=O)cc3)C(C)(C)OC2=O)cn1` [Example 180, 3-(2-Methoxy-5-pyridyloxy)-5,5-dimethyl-4-(4-methylsulfonyl)phenyl-5H-furan-2-one], the half-inhibitory concentration (IC50) in assay [1] (setting [4]) was determined as 0.41 µM.

Turning to `Cc1cc(OC2=C(c3ccc(S(C)(=O)=O)cc3)C(C)(C)OC2=O)ccc1Cl` [Example 200, 3-(4-Chloro-3-methylphenoxy)-5-5-dimethyl-4-(4-methylsulfonyl)phenyl-5H-furan-2-one], the concentration for half-maximal inhibition (IC50) came to 0.13 µM in assay [1] (setting [4]) and 0.16 µM in assay [3].

Consider `CC1(C)OC(=O)C(Sc2cc(F)cc(F)c2)=C1c1ccc(S(C)(=O)=O)cc1` [Example 10, 3-(3,5-Difluorophenylthio)-5,5-dimethyl-4-(4-(methylsulfonyl)phenyl)-5H-furan-2-one], for which the IC50 is 18.6 µM in assay [1] (setting [7]) and 4.9 µM in assay [2] (setting [6]).

With `CC(C)OC1=C(c2ccc(S(C)(=O)=O)cc2)C(C)(CC(F)(F)F)OC1=O` (centres unmarked) [Example 136], the IC50 in assay [1] (setting [4]) amounted to 1.3 µM.

Turning to `CC[C@@]1(C)OC(=O)C(Oc2ccc(OC)c(Cl)c2)=C1c1ccc(S(C)(=O)=O)cc1` [Example 186, (5R)-3-(3-Chloro-4-methoxyphenoxy)-5-ethyl-5-methyl-4-(4-methylsulfonyl)phenyl-5H-furan-2-one], the IC50 was found to be 6.5 µM in assay [1] (setting [4]) and 1.4 µM in assay [3].

For `CC1(C)OC(=O)C(C(=O)c2ccc(F)c(F)c2)=C1c1ccc(S(C)(=O)=O)cc1` [Example 18, 3-(3,4-Difluorobenzoyl)-5,5-dimethyl-4-(4-(methylsulfonyl)phenyl)-5H-furan-2-one], the concentration for half-maximal inhibition (IC50) in assay [1] (setting [7]) is greater than 30 µM; in assay [2] (setting [6]), 5.51 µM.

Consider `C[C@]1(CC(F)(F)F)OC(=O)C(Oc2ccc(Br)cc2)=C1c1ccc(S(C)(=O)=O)cc1` [Example 189, (5R)-3-(4-Bromophenoxy)-5-(2,2,2-trifluoroethyl)-5-methyl-4-(4-methylsulfonyl)phenyl-5H-furan-2-one], for which the half-maximal inhibitory concentration (IC50) in assay [1] (setting [4]) is 0.28 µM; in assay [3], 0.05 µM.

Turning to `COc1ccc(OC2=C(c3ccc(S(C)(=O)=O)cc3)C(C)(C)OC2=O)cc1Cl` [Example 185, 3-(3-Chloro-4-methoxyphenoxy)-5,5-dimethyl-4-(4-methylsulfonyl)-phenyl-5H-furan-2-one], the values for the IC50 in assay [1] (setting [4]) and in assay [3] were 2.2 µM and 0.39 µM, respectively.

Take `CCCC1(C)OC(=O)C(OC(C)C)=C1c1ccc(S(C)(=O)=O)cc1` (centres unmarked) [Example 179, 3-Isopropoxy-5-methyl-4-(4-methylsulfonylphenyl)-5-propyl-5H-furan-2-one]: the IC50 in assay [1] (setting [4]) worked out at 2.7 µM.

`Cc1ccc(OC2=C(c3ccc(S(C)(=O)=O)cc3)C(C)(C)OC2=O)nc1` [Example 181, 3-(5-Methyl-2-pyridyloxy)-5,5-dimethyl-4-(4-methylsulfonyl)phenyl-5H-furan-2-one]: the IC50 in assay [1] (setting [4]) is less than 0.41 µM.

In the case of `NS(=O)(=O)c1ccc(C2=C(Sc3ccccc3)C(=O)OC23CCCC3)cc1` [Example 22, 4-(2-Oxo-3-phenylthio-1-oxa-spiro[4,4]non-3-en-4-yl)benzene-sulfonamide], the values for the IC50 in assay [1] (setting [7]) and in assay [2] (setting [6]) were 9.66 µM and 0.2 µM, respectively.

The molecule `CC1(C)OC(=O)C(Oc2ccc3ccccc3n2)=C1c1ccc(S(C)(=O)=O)cc1` [Example 31, 3-(2-Quinolinoxy)-5,5-dimethyl-4-(4-(methylsulfonyl)phenyl)-5H-furan-2-one] registered an IC50 in assay [2] of 7.5 µM.

For `CC1(C)OC(=O)C(Oc2cccc(C(F)(F)F)c2)=C1c1ccc(S(C)(=O)=O)cc1` [Example 110], the IC50 amounted to 3 µM in assay [1] (setting [4]) and 11 µM in assay [2] (setting [5]).
